Experimental data as given in patent US20250120961A1, “P53 MODULATORS” (Nested Therapeutics, Inc., priority 2023, published 2025).
pEC50: −log10 of the molar value.

The compounds below were run against His-tagged p53-Y220C DNA binding domain (Homo sapiens, UniProt P04637, Y220C) (assay: Biochemical p53-Y220C and DNA binding assay (HTRF)). Details: inflection point of 10 points dose titration, 4 parameter curve fit; p53-Y220C DBD 100 nM, biotinylated dsDNA 200 nM, 27 to 29° C.; read-out: HTRF IP.
Source text: Biological Example 1. Biochemical p53-Y220C and DNA Binding Assay
The compounds of this invention can bind to p53-Y220C and increase the ability of the mutant p53 to bind to DNA at higher temperatures. His-tagged p53-Y220C DNA binding domain containing amino acid 94-312 is used to measure DNA binding activities in vitro with the sequence described below. (SEQ ID NO: 1: […]. Biotin labeled double strand DNA (dsDNA) containing consensus p53 binding sequence (SEQ ID NO: 2: Forward: 5′-(biotin)-[…]-3′; Reverse: 5′-(biotin)-[…]-3′) is used to measure protein-DNA binding activities. Compounds, His-tagged p53-Y220C DBD proteins (100 nM), and biotinylated dsDNA (200 nM) were mixed in ice-cold assay buffer containing DPBS, 20 mM NaCl, and 0.5% BAS, and incubated at 4° C. overnight in 384-well plate. Plates were transferred to incubator at 27 to 29° C. with constant shaking for 60 minutes. Equal volume of Homogeneous Time-Resolved Fluorescence (HTRF) dyes containing mAb anti-6HIS Tb cryptate gold and d2 labeled streptavidin in the assay buffer was added to each well and incubated at 27 to 29° C. with constant shaking for 60 minutes. The plate was read using Envision multimode plate reader. Reference compound 1 was used as high control and DMSO was used as low control. The percentage activation (A %) of protein-DNA binding by compounds was normalized by setting up high control (reference compound) as […] and low control (DMSO) as 0% (A %=(HTRF ratio of compound-HTRF ratio of low control)/(HTRF ratio of high control-HTRF ratio of low control)*500). 10 points dose titration curves for each compound were analyzed by 4 parameter curve fit and inflection point (IP) was reported. Reference compound 1 is shown below Table 1. Compounds of the invention are active in the HTRF assay. Data in Table 1 collected using Biological Example 1.

| SMILES | pEC50 |
| --- | --- |
| CN1CC[C@@H](Nc2cccc3c2cc(/C=N/Oc2ccccc2)n3CC(F)(F)F)[C@@H](F)C1 [Example 2-6, (E)-4-(((3S,4R)-3-fluoro-1-methylpiperidin-4-yl)amino)-1-(2,2,2-trifluoroethyl)-1H-indole-2-carbaldehyde O-phenyl oxime] | < 6.00 |
| CNC(=O)CO/N=C/c1cc2c(N[C@@H]3CCN(C)C[C@@H]3F)cccc2n1CC(F)(F)F [Example 2-7, 2-((((E)-(4-(((3S,4R)-3-fluoro-1-methylpiperidin-4-yl)amino)-1-(2,2,2-trifluoroethyl)-1H-indol-2-yl)methylene)amino)oxy)-N-methylacetamide] | < 6.00 |
| CN1CC[C@@H](Nc2cccc3c2cc(/C=N/OCC(=O)Nc2ccccc2)n3CC(F)(F)F)[C@@H](F)C1 [Example 2-8, 2-((((E)-(4-(((3S,4R)-3-fluoro-1-methylpiperidin-4-yl)amino)-1-(2,2,2-trifluoroethyl)-1H-indol-2-yl)methylene)amino)oxy)-N-phenylacetamide] | 6.00 to 7.00 |
| CN1CC[C@@H](Nc2cccc3c2cc(/C=N/OCc2nc4ccccc4[nH]2)n3CC(F)(F)F)[C@@H](F)C1 [Example 2-9, (E)-4-(((3S,4R)-3-fluoro-1-methylpiperidin-4-yl)amino)-1-(2,2,2-trifluoroethyl)-1H-indole-2-carbaldehyde O-((1H-benzo[d]imidazol-2-yl)methyl)oxime] | 6.00 to 7.00 |
| F[C@H]1CNCC[C@H]1Nc1cccc2c(CC(F)(F)F)c(/C=N/OCC3CC3)sc12 [Example 2-10, (E)-7-(((3S,4R)-3-fluoropiperidin-4-yl)amino)-3-(2,2,2-trifluoroethyl)benzo[b]thiophene-2-carbaldehyde O-cyclopropylmethyl oxime] | 6.00 to 7.00 |
| F[C@H]1CNCC[C@H]1Nc1cccc2c(CC(F)(F)F)c(/C=N\OCC3CC3)sc12 [Example 2-11, (Z)-7-(((3S,4R)-3-fluoropiperidin-4-yl)amino)-3-(2,2,2-trifluoroethyl)benzo[b]thiophene-2-carbaldehyde O-cyclopropylmethyl oxime] | 6.00 to 7.00 |
| OC(CO/N=C/c1sc2c(N[C@@H]3CCNC[C@@H]3F)cccc2c1CC(F)(F)F)c1ccccc1 (stereo partly drawn) [Example 2-12, (E)-7-(((3S,4R)-3-fluoropiperidin-4-yl)amino)-3-(2,2,2-trifluoroethyl)benzo[b]thiophene-2-carbaldehyde O-(2-hydroxy-2-phenylethyl) oxime] | 6.00 to 7.00 |
| CC(O)CO/N=C/c1sc2c(N[C@@H]3CCNC[C@@H]3F)cccc2c1CC(F)(F)F (stereo partly drawn) [Example 2-13, (E)-7-(((3S,4R)-3-fluoropiperidin-4-yl)amino)-3-(2,2,2-trifluoroethyl)benzo[b]thiophene-2-carbaldehyde O-(2-hydroxypropyl) oxime] | 6.00 to 7.00 |
| CO/N=C/c1sc2c(N[C@@H]3CCN(C)C[C@@H]3F)cccc2c1CC(F)(F)F [Example 2-14, (E)-7-(((3S,4R)-3-fluoro-1-methylpiperidin-4-yl)amino)-3-(2,2,2-trifluoroethyl)benzo[b]thiophene-2-carbaldehyde O-methyl oxime] | < 6.00 |
| CN1CC[C@@H](Nc2cccc3c(CC(F)(F)F)c(/C=N/OCc4nc5ccccc5[nH]4)sc23)[C@@H](F)C1 [Example 2-15, (E)-7-(((3S,4R)-3-fluoro-1-methylpiperidin-4-yl)amino)-3-(2,2,2-trifluoroethyl)benzo[b]thiophene-2-carbaldehyde O-((1H-benzo[d]imidazol-2-yl)methyl) oxime] | 6.00 to 7.00 |
| CC(C)(C)O/N=C/c1sc2c(N[C@@H]3CNC[C@@H]3F)cccc2c1CC(F)(F)F [Example 2-16, (E)-7-(((3R,4S)-4-fluoropyrrolidin-3-yl)amino)-3-(2,2,2-trifluoroethyl)benzo[b]thiophene-2-carbaldehyde O-(tert-butyl) oxime] | < 6.00 |
| F[C@H]1CNC[C@H]1Nc1cccc2c(CC(F)(F)F)c(/C=N/OC3CCCC3)sc12 [Example 2-17, (E)-7-(((3R,4S)-4-fluoropyrrolidin-3-yl)amino)-3-(2,2,2-trifluoroethyl)benzo[b]thiophene-2-carbaldehyde O-cyclopentyl oxime] | 6.00 to 7.00 |
| O=C1CCC(CO/N=C/c2sc3c(N[C@@H]4CNC[C@@H]4F)cccc3c2CC(F)(F)F)N1 (stereo partly drawn) [Example 2-18, (E)-7-(((3R,4S)-4-fluoropyrrolidin-3-yl)amino)-3-(2,2,2-trifluoroethyl)benzo[b]thiophene-2-carbaldehyde O-((5-oxopyrrolidin-2-yl)methyl) oxime] | 6.00 to 7.00 |
| O=C1NC(CO/N=C/c2sc3c(N[C@@H]4CNC[C@@H]4F)cccc3c2CC(F)(F)F)CO1 (stereo partly drawn) [Example 2-19, (E)-7-(((3R,4S)-4-fluoropyrrolidin-3-yl)amino)-3-(2,2,2-trifluoroethyl)benzo[b]thiophene-2-carbaldehyde O-((2-oxooxazolidin-4-yl)methyl) oxime] | 6.00 to 7.00 |
| Cc1oc(=O)oc1CO/N=C/c1sc2c(N[C@@H]3CNC[C@@H]3F)cccc2c1CC(F)(F)F [Example 2-20, (E)-7-(((3R,4S)-4-fluoropyrrolidin-3-yl)amino)-3-(2,2,2-trifluoroethyl)benzo[b]thiophene-2-carbaldehyde O-((5-methyl-2-oxo-1,3-dioxol-4-yl)methyl) oxime] | 6.00 to 7.00 |
| CN1C[C@H](F)[C@H](Nc2cccc3c(CC(F)(F)F)c(/C=N/OCC(C)(C)O)sc23)C1 [Example 2-21, (E)-7-(((3R,4S)-4-fluoro-1-methylpyrrolidin-3-yl)amino)-3-(2,2,2-trifluoroethyl)benzo[b]thiophene-2-carbaldehyde O-(2-hydroxy-2-methylpropyl) oxime] | 6.00 to 7.00 |
| CC(C)N1C[C@H](F)[C@H](Nc2cccc3c(CC(F)(F)F)c(/C=N/OCC(C)(C)O)sc23)C1 [Example 2-22, (E)-7-(((3R,4S)-4-fluoro-1-isopropylpyrrolidin-3-yl)amino)-3-(2,2,2-trifluoroethyl)benzo[b]thiophene-2-carbaldehyde O-(2-hydroxy-2-methylpropyl) oxime] | > 7.00 |
| O=C1NCC(CO/N=C/c2sc3c(N[C@@H]4CNC[C@@H]4F)cccc3c2CC(F)(F)F)O1 (stereo partly drawn) [Example 2-23, (E)-7-(((3R,4S)-4-fluoropyrrolidin-3-yl)amino)-3-(2,2,2-trifluoroethyl)benzo[b]thiophene-2-carbaldehyde O-((2-oxooxazolidin-5-yl)methyl) oxime] | 6.00 to 7.00 |
| F[C@H]1CNC[C@H]1Nc1cccc2c(CC(F)(F)F)c(/C=N/OC3CCC3)sc12 [Example 2-24, (E)-7-(((3R,4S)-4-fluoropyrrolidin-3-yl)amino)-3-(2,2,2-trifluoroethyl)benzo[b]thiophene-2-carbaldehyde O-cyclobutyl oxime] | 6.00 to 7.00 |
| CC(O/N=C/c1sc2c(N[C@@H]3CNC[C@@H]3F)cccc2c1CC(F)(F)F)c1cccnc1 (stereo partly drawn) [Example 2-25, (E)-7-(((3R,4S)-4-fluoropyrrolidin-3-yl)amino)-3-(2,2,2-trifluoroethyl)benzo[b]thiophene-2-carbaldehyde O-(1-(pyridin-3-yl)ethyl) oxime] | 6.00 to 7.00 |
| O=c1cccc(CO/N=C/c2sc3c(N[C@@H]4CNC[C@@H]4F)cccc3c2CC(F)(F)F)[nH]1 [Example 2-26, (E)-7-(((3R,4S)-4-fluoropyrrolidin-3-yl)amino)-3-(2,2,2-trifluoroethyl)benzo[b]thiophene-2-carbaldehyde O-((6-oxo-1,6-dihydropyridin-2-yl)methyl) oxime] | > 7.00 |
| COc1cccc(CO/N=C/c2sc3c(N[C@@H]4CCN(C)C[C@@H]4F)cccc3c2CC(F)(F)F)n1 [Example 2-27, (E)-7-(((3S,4R)-3-fluoro-1-methylpiperidin-4-yl)amino)-3-(2,2,2-trifluoroethyl)benzo[b]thiophene-2-carbaldehyde O-((6-methoxypyridin-2-yl)methyl) oxime] | 6.00 to 7.00 |
| COc1cccc(CO/N=C\c2sc3c(N[C@@H]4CCN(C)C[C@@H]4F)cccc3c2CC(F)(F)F)n1 [Example 2-28, (Z)-7-(((3S,4R)-3-fluoro-1-methylpiperidin-4-yl)amino)-3-(2,2,2-trifluoroethyl)benzo[b]thiophene-2-carbaldehyde O-((6-methoxypyridin-2-yl)methyl) oxime] | 6.00 to 7.00 |
| CN1CC[C@@H](Nc2cccc3c(CC(F)(F)F)c(/C=N/OCc4cccc(=O)n4C)sc23)[C@@H](F)C1 [Example 2-29, (E)-7-(((3S,4R)-3-fluoro-1-methylpiperidin-4-yl)amino)-3-(2,2,2-trifluoroethyl)benzo[b]thiophene-2-carbaldehyde O-((1-methyl-6-oxo-1,6-dihydropyridin-2-yl)methyl) oxime] | 6.00 to 7.00 |
